Test: Human HepG2 cell viability assay in 384 well format
Format: toxicity, cell-based
Design: dose 125 nL, time 70.5 hour; concentration not given beside the values
Settings: HepG2 cells, read-out: Inhibition

SMILES	cytotoxicity at 70.5 h
CC(=O)NCC(=O)N1CCC2(COCc3c(C)nc(N(C)C)nc32)C1 (stereo not given)	-6.64%
Cc1nnc2n1CCN(C(=O)CN1C(=O)C(C)Oc3ccccc31)C2 (stereo not given)	-7.32%
CN1CCC(O)(CNCc2ccc(F)c(C(F)(F)F)c2)CC1	22.4%
CN1CC2(CCN(C(=O)C3CCC3)CC2)COc2ccccc2S1(=O)=O	-4.42%
CN(Cc1cc(F)ccc1F)CC(C)(CO)CO	-5.92%
CCOC(=O)NC(CNC(=O)c1ccccn1)CC(C)C (stereo not given)	-4.75%
CN(C)CC(=O)N1Cc2nnn(C)c2C(COCC2CC2)C1 (stereo not given)	-11.8%
Cc1ccc(CN2CCC3(CC2)C(=O)N(CCO)CCN3C)o1	-3.64%
O=C1NCCCc2[nH]c(-c3nc(C4CC4)no3)nc21	-3.92%
Cc1n[nH]c(C2CN(C(=O)c3cc(C4CC4)on3)CCO2)n1 (stereo not given)	17%
Cc1cc(CN2CCC3(CC2)COC(COCC2CC2)C3)no1 (stereo not given)	-9.77%
Cc1ccc(N2CC[C@@H]3[C@@H]2CCN3C(=O)Cc2ccsc2)nn1	-4.23%
CC(C(=O)Nc1cccc(N2CCCCC2)c1)n1cncn1 (stereo not given)	-6.3%
Cc1cnn(CC2CCCN2Cc2nnc(C(C)C)o2)c1 (stereo not given)	23%
CN(Cc1ccccn1)C1COC2(CCN(Cc3nccs3)CC2)C1 (stereo not given)	15.3%
CCS(=O)(=O)N1CC[C@@H]2[C@H](CC1)N(Cc1cccnc1)CCS2(=O)=O	-4.2%
CC[C@H](C)[C@H](NC(=O)c1cccc(-n2cnnn2)c1)C(=O)OC	-11%
O=C(NCc1cc2n(n1)CCCN(Cc1ccc(Cl)s1)C2)C1CCC1	-10.1%
CCS(=O)(=O)N1CC[C@H]2O[C@H](c3nnc(C)o3)CC[C@H]21	-13.4%
COCCN1CCC2(CCN(CC3CC3)CC2)C1=O	-2.3%
COCCOCC(=O)NC(C#N)c1c(F)cccc1Cl (stereo not given)	20.7%
COc1ccc(C2CCCN2C(=O)c2csc(NC(C)=O)n2)cc1 (stereo not given)	-20.6%
Cc1nsc(N2CCN(Cc3cccc(F)c3)CC2)n1	0.252%

SMILES	cytotoxicity at 70.5 h
CN(C)c1cc(CNC(=O)c2cc(F)ccc2F)ccn1	0.104%
COC(=O)c1cccn1C1CCN(Cc2cnc3ccccn23)CC1	10.2%
Cc1cccc(C(=O)NCc2ccnc(N(C)C)c2)n1	0.0987%
COC(=O)CNC(=O)CSCc1nc(O)c2c(C)c(C)sc2n1	-18.2%
Cc1cc(C(=O)Nc2cc(C3CC3)n[nH]2)c2c(C)nn(C)c2n1	-12.4%
COc1ccc(OC)c(-c2nc(CN(C)Cc3nonc3C)c(C)o2)c1	26.4%
CS(=O)(=O)NCc1noc2c1CN(C(=O)c1ccsc1)CC2	-7.43%
O=C(CCc1nc2cccnc2[nH]1)Nc1ccc2c(c1)NC(=O)CO2	8.55%
N#Cc1ccc(N2CCC(c3nc(C(F)(F)F)c[nH]3)CC2)nc1	-11.5%
CN(C)CCn1ccc2cc(NC(=O)NCc3ncnn3C)ccc21	-3.79%
CN(CCc1nc2cc(Cl)ccc2[nH]1)C(=O)c1ncn[nH]1	-9.76%
COc1ccccc1CCNC(=O)CNC1CCc2nc(C)nn2C1 (stereo not given)	-0.271%
CNc1nc2c(s1)C(c1ccc(Cl)cc1Cl)CC(=O)N2 (stereo not given)	-5.21%
CC(=O)N[C@@H]1Cc2ccccc2[C@H]1Nc1cc(C2CC2)ncn1	7.02%
CS(=O)(=O)NCCN(CCCO)C1CCc2ccccc21 (stereo not given)	-97.1%
CCc1cc(C(=O)NCC2CCN(Cc3cccc(C)n3)C2)on1 (stereo not given)	-1.06%
O=C(Cc1ccc(F)cc1F)NCC(=O)Nc1ccccn1	-5.81%
Nc1ncc(C(=O)N2CCC3(CCCO3)CC2)c(-c2ccccc2)n1	-2.3%
Cc1n[nH]c(C2CN(C(=O)c3cc4c(s3)CCC4)CCO2)n1 (stereo not given)	-14.5%
COCCC(=O)NCCn1nc(C2CCNC2)c2cccnc21 (stereo not given)	14.1%
Cc1ccc2c(c1)C(N(C)C)CC21CCN(CCO)CC1 (stereo not given)	-0.704%
O=C(c1ccc2ncsc2c1)N1CCC(C(=O)O)(n2cccn2)CC1	-8.58%
Cc1nc2n(n1)CC(NCC(=O)NCCCOC(C)C)CC2 (stereo not given)	-0.276%

SMILES	cytotoxicity at 70.5 h
O=C(CCCn1cccn1)N1C[C@@H](O)[C@H](Oc2cccc(F)c2)C1	3.04%
CN(C)[C@@H]1CCN(c2ncccn2)[C@H]1Cc1cccnc1	-3.76%
CS(=O)(=O)c1ccc(CNC(=O)N2CCC(C(N)=O)CC2)cc1	-2.35%
CCn1ccnc1CN(C)C1CCCN(CCc2ccccc2)C1 (stereo not given)	1.27%
CN1N=C(C(=O)N2CCCC(CCc3ccccc3F)C2)CCC1=O (stereo not given)	-5.83%
CC(CNC(=O)c1ccn(-c2ccc(F)cc2)n1)Cn1cccn1 (stereo not given)	-22.8%
CCN(Cc1cccnc1)CC1CCCO1 (stereo not given)	-0.83%
CNC(=O)c1cc2c(nc1NC(C)C)CCNCC2	6.54%
O=C(Cc1cccs1)N1CCn2cc(Cn3cccn3)nc2C1	-13.4%
O=C(CN1CCCCC1Cn1cncn1)NCCc1ccsc1 (stereo not given)	9.35%
CC(C(=O)N1CCN(Cc2ccncc2)CC1)n1cncn1 (stereo not given)	-4.9%
O=C(NCCn1ccnc1)N1CCN(c2nccs2)CC1	16.8%
COCC(=O)N1CC[C@@H]2O[C@H](COCc3ccncc3)CC[C@@H]21	-15.9%
c1cnc(N2CC[C@@H](OCC3CC3)[C@@H]2Cc2cccnc2)nc1	-4.73%
Cc1ccccc1N1CCN(C(=O)Cc2ccc3c(c2)OCO3)CC1=O	-2.79%
O=c1[nH]c(-c2ccncc2)ncc1-c1ccnc(NC2CC2)n1	23.6%
CCn1cc(NC(=O)NCC(C)O)cn1 (stereo not given)	-1.8%
O=C(c1ccsc1)N1CCc2c(nc(-c3ccncc3)[nH]c2=O)C1	-6.38%
COc1ccc(-c2noc(CN3CCN(c4cnccn4)CC3)n2)cc1	-16.7%
O=C(COC1CCCC1)NCCc1noc(-c2ccccn2)n1	-5.96%
CC1CCN(c2ncc3c(n2)CN(C2CCS(=O)(=O)C2)C3=O)CC1 (stereo not given)	29%
COc1cccc(-c2noc(C3CCN(CC4CCCCC4)C3)n2)c1 (stereo not given)	18.2%
CC(C)c1nc(CN2CCN(C(=O)OC(C)(C)C)C(C)C2)no1 (stereo not given)	-2.12%

SMILES	cytotoxicity at 70.5 h
CN(C(=O)NCCCNc1ccccn1)C1CCS(=O)(=O)C1 (stereo not given)	-10.6%
CCc1noc(CC)c1CC(=O)N1CCC(C(=O)NC(C)C)CC1	-3.58%
CC(Cc1cccc(F)c1)C(=O)NS(=O)(=O)c1ccc(F)cc1 (stereo not given)	11.8%
CCc1noc(CN(CC(=O)N2CCCCC2)c2cccc(C)c2)n1	-3.01%
Cc1nsc(NCCNS(=O)(=O)c2ccccc2)n1	-1.39%
Cc1nc[nH]c1CN1CCOC(c2ccc(Cl)c(Cl)c2)C1 (stereo not given)	-2.06%
Cc1noc(NC(=O)c2ccc(Br)cc2)n1	48.3%
Cc1ccc(C(=O)Nc2cn[nH]c2)cc1	-6.42%
Cc1cccc(-c2nc(CN3CCc4c(ncn4C)C3)no2)c1	20.5%
Cc1nnc(N2C[C@@H]3CCCO[C@@H]3[C@H](N(C)C)C2)s1	26.3%
COCC1c2nnn(C)c2CCN1C(=O)Cc1ccccn1 (stereo not given)	-3.79%
CN1CCN(C(=O)N2C[C@H]3CC[C@@H]2CN(Cc2ccccc2)C3)CC1	-18.1%
CCc1noc(C)c1C(=O)N1CCCC1Cn1cccn1 (stereo not given)	-3.75%
O=C(c1ccc(Cl)cc1)N1CCC(N2CCOC2=O)CC1	-7.62%
O=C(c1cnc(O)cn1)N1CCC(CN2CCOCC2)CC1	-13.8%
NCCC(Cc1ccccc1)c1ccco1 (stereo not given)	35%
CCOC(=O)CC(C)Nc1nc(C(C)(C)C)nc2c1cnn2C (stereo not given)	22.1%
CNC(=O)c1ccc(CN(C(C)C)C(C)C)o1	-4.83%
O=S(=O)(c1cccnc1)N1CCN(Cc2nc(-c3ccco3)cs2)CC1	0.0264%
CCC(CO)N(Cc1ccco1)Cc1c(C)nn(C)c1Cl (stereo not given)	3.17%
O=C([C@@H]1C[C@@H]2CCN(C3CCOCC3)C[C@H]2O1)N1CCOCC1	-0.695%
CC(C)C1CN(c2nccc(N)n2)CCC(=O)N1Cc1ccc(F)cc1 (stereo not given)	-8.72%
Cc1sc(Br)cc1S(=O)(=O)NCCN	-7.86%

SMILES	cytotoxicity at 70.5 h
O=C(c1ccccc1)N1CCC[C@]2(C[C@@H](OCc3ccccn3)CO2)C1	-13.1%
Cc1cnc(NC(=O)c2csc(NCC(C)C)n2)s1	9.3%
COCCN(C)C(=O)Cn1cccc(OC)c1=O	-9.38%
CCC(NCc1ccccc1)c1ccccc1OCC(=O)NC (stereo not given)	-6.53%
Cc1cccc(NC(=O)Cc2cnc3n(C)c(=O)[nH]c(=O)n23)c1	22.4%
COc1ccnc(N2CCN(C(=O)CN3CCCC3=O)CC2)n1	0.556%
CCOC(=O)c1coc(N2CCN(Cc3cc(C)cc(C)c3)C(=O)C2)n1	-5.18%
CCN(C)CC(=O)N1CCCC(c2nnc(CN3CCOCC3)n2C)C1 (stereo not given)	-4.67%
O=C(Cc1cccs1)NCCNc1nccc(C(F)(F)F)n1	-3.67%
COCCn1ccc(NC(=O)Nc2ccncc2)n1	-3.96%
CCc1ccsc1C(=O)N1CCCN(Cc2nccn2CC)CC1	5.97%
CN(C)C(=O)C1(Oc2ccc(Cl)cc2)CCNCC1	-3.42%
CCC(C)(NCC(=O)Nc1nc(C)cs1)c1nc(C)cs1 (stereo not given)	-0.105%
Cc1ccc(OCCN(C)C2CCOC2=O)cc1 (stereo not given)	-5.65%
Cc1cnn(CC(C)NCc2ccc(-n3cccn3)cc2)c1 (stereo not given)	30.2%
CCn1nc(C)c2c1cnn2CC(=O)Nc1ccc(OC)cc1C	-1.46%
Cc1cc(C)n(CCNCc2cc(-c3ccc(Cl)cc3)c[nH]c2=O)n1	-3.88%
Cc1noc(NC(=O)c2ccc(Br)o2)n1	-9.68%
CCc1nn(C)c(Cl)c1CN(CC)Cc1cnn(CC)c1	-6.7%
CC(C)S(=O)(=O)NCC1CCCN(C(=O)c2cccnc2)C1 (stereo not given)	-7.06%
Cc1nnc(C2CCN(c3ncccn3)CC2)o1	-15%
CCc1cc(CNC(=O)Nc2cc(F)ccc2N2CCCCC2)on1	-2.62%
COc1cccc(CC(C)NC(=O)NCCNC(C)=O)c1 (stereo not given)	-1.81%
